Test results from patent EP0726072A2, “Composition for the treatment of hypertension and congestive heart failure, containing an angiotensin II antagonist and an endopeptidase inhibitor” (BRISTOL-MYERS SQUIBB COMPANY, priority 1995, dated 1996).

System: 1K1C hypertensive dogs
Test: Haemodynamic, renal and hormonal effects in conscious 1-kidney-1-clip hypertensive dogs
Format: in vivo
Method: The studies described in this experiment were conducted in dogs that had been rendered hypertensive by prior unilateral nephrectomy and constriction of the remaining renal artery. This model is characterized by normal basal levels of plasma renin activity and is relatively resistant to the anti-hypertensive activity of angiotensin converting enzyme inhibitors and AT1 receptor antagonists.
The following experiments were conducted in fasted 1K1C hypertensive dogs lightly restrained in standard canine slings. An indwelling arterial catheter was accessed via a subcutaneous port for measurement of blood pressure via a Gould-Statham pressure transducer. Mean arterial pressure (MAP) was continuously recorded on a Gould chart writer and stored electronically using a Po-Ne-Mah data acquisition system. During each study, urine was collected at 20 minute intervals via a Foley bladder catheter for determination of urine volume. The concentrations of urinary sodium and potassium were measured using ion-selective electrodes and their rates of urinary excretion (µEq/min) were calculated. Glomerular filtration rate (GFR) and effective renal plasma flow (ERPF) were determined by the renal clearances of exogenous creatinine and para-aminohippuric acid (PAH), respectively. The concentrations of creatinine and PAH in sequential samples of urine and plasma were determined by spectrophotometric assays and the clearances were calculated by the standard formula.
Arterial blood samples were drawn at the end of the control period and at 60 minute intervals thereafter for determination of the plasma concentrations of atrial natriuretic peptide (ANP), cyclic GMP and plasma renin activity (PRA) by separate radioimmunoassays. The plasma and urine samples were preserved and the assays were conducted according to standard radioimmunoassay procedures. Urinary excretion rates of cyclic GMP and ANP were calculated and expressed as pmol/min and fmol/min, respectively.
In each study, baseline measurements were obtained during two 20 minute control periods. One of the treatments was then administered and sampling continued at 20 minute intervals for three hours.
To minimize inter-animal variability, each data point was expressed as the change from the average control value for that parameter. Significant differences among treatments were identified by analysis of variance for repeated measures. […] Results are given as mean ± SEM.

[1] = 20 min after treatment, 30 µmol/kg iv of each agent
[2] = 40 min after treatment, 30 µmol/kg iv of each agent
[3] = 60 min after treatment, 30 µmol/kg iv of each agent
[4] = 80 min after treatment, 30 µmol/kg iv of each agent
[5] = 100 min after treatment, 30 µmol/kg iv of each agent
[6] = 120 min after treatment, 30 µmol/kg iv of each agent
[7] = 140 min after treatment, 30 µmol/kg iv of each agent
[8] = 160 min after treatment, 30 µmol/kg iv of each agent
[9] = 180 min after treatment, 30 µmol/kg iv of each agent

`CCCCC1=NC2(CCCC2)C(=O)N1Cc1ccc(-c2ccccc2-c2nnn[nH]2)cc1` [BMS 186295, 2-butyl-6,7,8,9-tetrahydro-3-[[2'-(1H-tetrazol-5-yl)[1,1'-biphenyl]-4-yl]-methyl]-1,3-diazaspiro[4.4]nonan-4-one] was tested, and the “increase in the amount of sodium excreted during the 3 hours after injection” value (30 µmol/kg iv of each agent, cumulative over 3 hours) was 5.4±1.0 mEq/3 hr, the “ANP Excretion, Change from control” value [1] was -0.7 ± 0.5 fmol/min and the “Cyclic GMP Excretion, Change from control” value (“Cyclic GMP Excretion, Change” below) [1] was -372 ± 240 pmol/min. For the same molecule, the “Effective Renal Plasma Flow, Change from control” value [1] was -68 ± 30 mL/min, the “Glomerular Filtration Rate, Change from control” value [1] was -4 ± 2 mL/min and the “Mean Arterial Pressure, Change from control” value (from here on “Mean Arterial Pressure, Change”) [1] was -1±1 mm Hg. For the same molecule, the “Sodium Excretion, Change from control” value [1] was 23±9 µEq/min, the “Urine Volume, Change from control” value [1] was 0.01 ± 0.07 mL/min and the “ANP Excretion, Change from control” value [2] was -0.6 ± 0.5 fmol/min. For the same molecule, the “Cyclic GMP Excretion, Change” value [2] was -277 ± 255 pmol/min, the “Effective Renal Plasma Flow, Change from control” value [2] was -54 ± 35 mL/min and the “Glomerular Filtration Rate, Change from control” value [2] was -2 ± 5 mL/min. The “Mean Arterial Pressure, Change” value [2] was -10±1 mm Hg, the “Sodium Excretion, Change from control” value [2] was 41±13 µEq/min and the “Urine Volume, Change from control” value [2] was 0.09 ± 0.14 mL/min. For the same molecule, the “ANP Excretion, Change from control” value [3] was -0.2 ± 0.3 fmol/min, the “Cyclic GMP Excretion, Change” value [3] was -150 ± 203 pmol/min and the “Effective Renal Plasma Flow, Change from control” value [3] was -35 ± 24 mL/min. The “Glomerular Filtration Rate, Change from control” value [3] was 6 ± 0 mL/min, the “Mean Arterial Pressure, Change” value [3] was -8±2 mm Hg and the “Plasma Renin Activity, Change from control” value (“Plasma Renin Activity, Change” for short) [3] was 1.28±0.51 pmol AI/ml/hr. The “Sodium Excretion, Change from control” value [3] was 36±8 µEq/min, the “Urine Volume, Change from control” value [3] was 0.12 ± 0.07 mL/min and the “ANP Excretion, Change from control” value [4] was -0.4 ± 0.3 fmol/min. The “Cyclic GMP Excretion, Change” value [4] was -309 ± 199 pmol/min, the “Effective Renal Plasma Flow, Change from control” value [4] was -13 ± 9 mL/min and the “Glomerular Filtration Rate, Change from control” value [4] was 5 ± 2 mL/min. The “Mean Arterial Pressure, Change” value [4] was -5±2 mm Hg, the “Sodium Excretion, Change from control” value [4] was 27±6 µEq/min and the “Urine Volume, Change from control” value [4] was 0.05 ± 0.06 mL/min. For the same molecule, the “ANP Excretion, Change from control” value [5] was -0.6 ± 0.4 fmol/min, the “Cyclic GMP Excretion, Change” value [5] was -266 ± 193 pmol/min and the “Effective Renal Plasma Flow, Change from control” value [5] was -1 ± 10 mL/min. The “Glomerular Filtration Rate, Change from control” value [5] was 3 ± 4 mL/min, the “Mean Arterial Pressure, Change” value [5] was -4±1 mm Hg and the “Sodium Excretion, Change from control” value [5] was 22±3 µEq/min. The “Urine Volume, Change from control” value [5] was -0.02 ± 0.09 mL/min, the “ANP Excretion, Change from control” value [6] was -0.5 ± 0.4 fmol/min and the “Cyclic GMP Excretion, Change” value [6] was -283 ± 236 pmol/min. For the same molecule, the “Effective Renal Plasma Flow, Change from control” value [6] was -8 ± 17 mL/min, the “Glomerular Filtration Rate, Change from control” value [6] was 4 ± 3 mL/min and the “Mean Arterial Pressure, Change” value [6] was -1±2 mm Hg. The “Plasma Renin Activity, Change” value [6] was 1.49±0.57 pmol AI/ml/hr, the “Sodium Excretion, Change from control” value [6] was 30±4 µEq/min and the “Urine Volume, Change from control” value [6] was -0.02 ± 0.10 mL/min. The “ANP Excretion, Change from control” value [7] was -0.6 ± 0.4 fmol/min, the “Cyclic GMP Excretion, Change” value [7] was -449 ± 206 pmol/min and the “Effective Renal Plasma Flow, Change from control” value [7] was 8 ± 3 mL/min. The “Glomerular Filtration Rate, Change from control” value [7] was 0 ± 5 mL/min, the “Mean Arterial Pressure, Change” value [7] was -1±2 mm Hg and the “Sodium Excretion, Change from control” value [7] was 28±7 µEq/min. For the same molecule, the “Urine Volume, Change from control” value [7] was -0.07 ± 0.12 mL/min, the “ANP Excretion, Change from control” value [8] was -0.5 ± 0.4 fmol/min and the “Cyclic GMP Excretion, Change” value [8] was -391 ± 199 pmol/min. For the same molecule, the “Effective Renal Plasma Flow, Change from control” value [8] was -14 ± 12 mL/min, the “Glomerular Filtration Rate, Change from control” value [8] was 0 ± 7 mL/min and the “Mean Arterial Pressure, Change” value [8] was 0±2 mm Hg. The “Sodium Excretion, Change from control” value [8] was 30±7 µEq/min, the “Urine Volume, Change from control” value [8] was -0.07 ± 0.16 mL/min and the “ANP Excretion, Change from control” value [9] was -0.6 ± 0.4 fmol/min. The “Cyclic GMP Excretion, Change” value [9] was -611 ± 346 pmol/min, the “Effective Renal Plasma Flow, Change from control” value [9] was -12 ± 11 mL/min and the “Glomerular Filtration Rate, Change from control” value [9] was 0 ± 4 mL/min. The “Mean Arterial Pressure, Change” value [9] was -1±3 mm Hg, the “Plasma Renin Activity, Change” value [9] was 1.24±0.62 pmol AI/ml/hr and the “Sodium Excretion, Change from control” value [9] was 30±2 µEq/min. For the same molecule, the “Urine Volume, Change from control” value [9] was -0.02 ± 0.07 mL/min, the “ANP Excretion” value (Control, before treatment) was 1.5 ± 0.6 fmol/min and the “Cyclic GMP Excretion” value (Control, before treatment) was 1122 ± 389 pmol/min. For the same molecule, the “Effective Renal Plasma Flow” value (Control, before treatment) was 127 ± 41 mL/min, the “Glomerular Filtration Rate” value (Control, before treatment) was 45 ± 10 mL/min and the “Mean Arterial Pressure” value (Control, before treatment) was 157±7 mm Hg. For the same molecule, the “Plasma Renin Activity” value (Control, before treatment) was 0.55±0.07 pmol AI/ml/hr, the “Sodium Excretion” value (Control, before treatment) was 18±2 µEq/min and the “Urine Volume” value (Control, before treatment) was 0.43 ± 0.16 mL/min. For the same molecule, the “sodium excretion, effect in words” value (summary of TABLE 2, 30 µmol/kg iv of each agent, 3 hours) was “increased”, the “urine volume, effect in words” value (summary of TABLE 3, 30 µmol/kg iv of each agent, 3 hours) was “increased” and the “Urinary excretion of ANP, effect in words” value (summary of TABLE 6, 30 µmol/kg iv of each agent) was “did not affect”. For the same molecule, the “PRA, effect in words” value (summary of TABLE 8, 30 µmol/kg iv of each agent) was “significantly increased” and the “mean arterial pressure (MAP), effect in words” value (summary of Table 1, 30 µmol/kg iv of each agent, 3 hours) was “signigicantly reduced”.
